Results: ChEMBL document CHEMBL5303573, “Mapping human microbiome drug metabolism by gut bacteria and their genes” (Nature, 2019)
Each block holds one compound with its values, some of them ahead of it.

Tests used:
[1] = The drug is tested on Clostridium symbiosum strain: ATCC14940 for biotransformation. The drug concentrations were measured before and after a 12-h incubation by liquid-chromatography-coupled mass spectrometry (LC–MS); settings: 2 µM
[2] = The drug is tested on Bifidobacterium longum subsp. Infantis strain: CCUG52486 for biotransformation. The drug concentrations were measured before and after a 12-h incubation by liquid-chromatography-coupled mass spectrometry (LC–MS); settings: 2 µM
[3] = The drug is tested on Eggerthella lenta strain: ATCC25559 for biotransformation. The drug concentrations were measured before and after a 12-h incubation by liquid-chromatography-coupled mass spectrometry (LC–MS); settings: 2 µM
[4] = parabacteroides distasonis, 12 h, 2 µM
Description: The drug is tested on Parabacteroides distasonis strain: ATCC8503 for biotransformation. The drug concentrations were measured before and after a 12-h incubation by liquid-chromatography-coupled mass spectrometry (LC–MS)

[5] = anaerostipes sp., 12 h, 2 µM
Description: The drug is tested on Anaerostipes sp. strain: fecal isolate for biotransformation. The drug concentrations were measured before and after a 12-h incubation by liquid-chromatography-coupled mass spectrometry (LC–MS)

[6] = The drug is tested on Bacteroides dorei strain: DSM17855 for biotransformation. The drug concentrations were measured before and after a 12-h incubation by liquid-chromatography-coupled mass spectrometry (LC–MS); settings: phocaeicola dorei, 2 µM
[7] = The drug is tested on Escherichia coli strain: BW25113 for biotransformation. The drug concentrations were measured before and after a 12-h incubation by liquid-chromatography-coupled mass spectrometry (LC–MS); settings: 2 µM
[8] = The drug is tested on Odoribacter splanchnicus strain: fecal isolate for biotransformation. The drug concentrations were measured before and after a 12-h incubation by liquid-chromatography-coupled mass spectrometry (LC–MS); settings: 2 µM
[9] = The drug is tested on Ruminococcus torques strain: ATCC27756 for biotransformation. The drug concentrations were measured before and after a 12-h incubation by liquid-chromatography-coupled mass spectrometry (LC–MS); assay type: ADME; parameters: dose 2 uM, timepoint 0 vs 12 hours; settings: 2 µM
[10] = bacteroides thetaiotaomicron, 12 h, 2 µM
Description: The drug is tested on Bacteroides thetaiotaomicron strain: 3731 for biotransformation. The drug concentrations were measured before and after a 12-h incubation by liquid-chromatography-coupled mass spectrometry (LC–MS)

[11] = bacteroides stercoris, 12 h, 2 µM
Description: The drug is tested on Bacteroides stercoris strain: ATCC43183 for biotransformation. The drug concentrations were measured before and after a 12-h incubation by liquid-chromatography-coupled mass spectrometry (LC–MS)

[12] = The drug is tested on Clostridium ramosum strain: DSM1402 for biotransformation. The drug concentrations were measured before and after a 12-h incubation by liquid-chromatography-coupled mass spectrometry (LC–MS); settings: thomasclavelia ramosa, 2 µM
[13] = The drug is tested on Collinsella intestinalis strain: DSM13280 for biotransformation. The drug concentrations were measured before and after a 12-h incubation by liquid-chromatography-coupled mass spectrometry (LC–MS); settings: 2 µM
[14] = The drug is tested on Subdoligranulum variabile strain: DSM15176 for biotransformation. The drug concentrations were measured before and after a 12-h incubation by liquid-chromatography-coupled mass spectrometry (LC–MS); settings: 2 µM
[15] = The drug is tested on Anaerotruncus colihominis strain: DSM17241 for biotransformation. The drug concentrations were measured before and after a 12-h incubation by liquid-chromatography-coupled mass spectrometry (LC–MS); settings: 2 µM
[16] = enterocloster bolteae, 12 h, 2 µM
Description: The drug is tested on Clostridium bolteae strain: ATCCBAA-613 for biotransformation. The drug concentrations were measured before and after a 12-h incubation by liquid-chromatography-coupled mass spectrometry (LC–MS)

[17] = The drug is tested on Ruminococcus gnavus strain: ATCC29149 for biotransformation. The drug concentrations were measured before and after a 12-h incubation by liquid-chromatography-coupled mass spectrometry (LC–MS); settings: mediterraneibacter gnavus, 2 µM
[18] = The drug is tested on Bacteroides pectinophilus strain: ATCC43243 for biotransformation. The drug concentrations were measured before and after a 12-h incubation by liquid-chromatography-coupled mass spectrometry (LC–MS); settings: 2 µM
[19] = The drug is tested on Blautia luti strain: DSM14534 for biotransformation. The drug concentrations were measured before and after a 12-h incubation by liquid-chromatography-coupled mass spectrometry (LC–MS); assay type: ADME; parameters: dose 2 uM, timepoint 0 vs 12 hours; settings: 2 µM
[20] = The drug is tested on Eubacterium ventriosum strain: ATCC27560 for biotransformation. The drug concentrations were measured before and after a 12-h incubation by liquid-chromatography-coupled mass spectrometry (LC–MS); assay type: ADME; parameters: dose 2 uM, timepoint 0 vs 12 hours; settings: 2 µM
[21] = segatella copri, 12 h, 2 µM
Description: The drug is tested on Prevotella copri strain: DSM18205 for biotransformation. The drug concentrations were measured before and after a 12-h incubation by liquid-chromatography-coupled mass spectrometry (LC–MS)

[22] = parabacteroides johnsonii, 12 h, 2 µM
Description: The drug is tested on Parabacteroides johnsonii strain: DSM18315 for biotransformation. The drug concentrations were measured before and after a 12-h incubation by liquid-chromatography-coupled mass spectrometry (LC–MS)

[23] = The drug is tested on Ruminococcus lactaris strain: ATCC29176 for biotransformation. The drug concentrations were measured before and after a 12-h incubation by liquid-chromatography-coupled mass spectrometry (LC–MS); settings: 2 µM
[24] = bacteroides fragilis, 12 h, 2 µM
Description: The drug is tested on Bacteroides fragilis strain: NCTC 9343 for biotransformation. The drug concentrations were measured before and after a 12-h incubation by liquid-chromatography-coupled mass spectrometry (LC–MS)

[25] = The drug is tested on Bacteroides coprophilus strain: DSM18228 for biotransformation. The drug concentrations were measured before and after a 12-h incubation by liquid-chromatography-coupled mass spectrometry (LC–MS); settings: 2 µM
[26] = The drug is tested on Bacteroides uniformis strain: ATCC8492 for biotransformation. The drug concentrations were measured before and after a 12-h incubation by liquid-chromatography-coupled mass spectrometry (LC–MS); settings: 2 µM
[27] = The drug is tested on Bacteroides sp. WH2 strain: WH2 for biotransformation. The drug concentrations were measured before and after a 12-h incubation by liquid-chromatography-coupled mass spectrometry (LC–MS); settings: bacteroides sp. wh2, 12 h, 2 µM
[28] = bacteroides intestinalis, 12 h, 2 µM
Description: The drug is tested on Bacteroides intestinalis strain: DSM17393 for biotransformation. The drug concentrations were measured before and after a 12-h incubation by liquid-chromatography-coupled mass spectrometry (LC–MS)

[29] = The drug is tested on Eubacterium hallii strain: DSM3353 for biotransformation. The drug concentrations were measured before and after a 12-h incubation by liquid-chromatography-coupled mass spectrometry (LC–MS); settings: anaerobutyricum hallii, 2 µM
[30] = The drug is tested on Bacteroides finegoldii strain: DSM17565 for biotransformation. The drug concentrations were measured before and after a 12-h incubation by liquid-chromatography-coupled mass spectrometry (LC–MS); settings: 2 µM
[31] = The drug is tested on Bacteroides caccae strain: ATCC43185 for biotransformation. The drug concentrations were measured before and after a 12-h incubation by liquid-chromatography-coupled mass spectrometry (LC–MS); settings: 2 µM
[32] = The drug is tested on Clostridium scindens strain: ATCC35704 for biotransformation. The drug concentrations were measured before and after a 12-h incubation by liquid-chromatography-coupled mass spectrometry (LC–MS); settings: 2 µM
[33] = limosilactobacillus reuteri cf48-3a, 12 h, 2 µM
Description: The drug is tested on Lactobacillus reuteri CF48-3A strain: BEI HM-102 for biotransformation. The drug concentrations were measured before and after a 12-h incubation by liquid-chromatography-coupled mass spectrometry (LC–MS)

[34] = The drug is tested on Coprococcus comes strain: ATCC27758 for biotransformation. The drug concentrations were measured before and after a 12-h incubation by liquid-chromatography-coupled mass spectrometry (LC–MS); assay type: ADME; parameters: dose 2 uM, timepoint 0 vs 12 hours; settings: 2 µM
[35] = bacteroides thetaiotaomicron, 12 h, 2 µM; remark: listed apart in the source
Description: The drug is tested on Bacteroides thetaiotaomicron strain: VPI-5482 for biotransformation. The drug concentrations were measured before and after a 12-h incubation by liquid-chromatography-coupled mass spectrometry (LC–MS)

[36] = The drug is tested on Clostridium asparagiforme strain: DSM15981 for biotransformation. The drug concentrations were measured before and after a 12-h incubation by liquid-chromatography-coupled mass spectrometry (LC–MS); assay type: ADME; parameters: dose 2 uM, timepoint 0 vs 12 hours; settings: enterocloster asparagiformis, 2 µM
[37] = bacteroides fragilis, 12 h, 2 µM; remark: listed apart in the source
Description: The drug is tested on Bacteroides fragilis strain: 3397 (T10) for biotransformation. The drug concentrations were measured before and after a 12-h incubation by liquid-chromatography-coupled mass spectrometry (LC–MS)

[38] = The drug is tested on Bacteroides fragilis strain: HMW615 for biotransformation. The drug concentrations were measured before and after a 12-h incubation by liquid-chromatography-coupled mass spectrometry (LC–MS); settings: 2 µM
[39] = The drug is tested on Bacteroides fragilis strain: HMW610 for biotransformation. The drug concentrations were measured before and after a 12-h incubation by liquid-chromatography-coupled mass spectrometry (LC–MS); settings: 2 µM
[40] = akkermansia muciniphila, 12 h, 2 µM
Description: The drug is tested on Akkermansia muciniphila strain: ATCC BAA-835 for biotransformation. The drug concentrations were measured before and after a 12-h incubation by liquid-chromatography-coupled mass spectrometry (LC–MS)

[41] = bifidobacterium adolescentis, 12 h, 2 µM
Description: The drug is tested on Bifidobacterium adolescentis strain: ATCC 15703 for biotransformation. The drug concentrations were measured before and after a 12-h incubation by liquid-chromatography-coupled mass spectrometry (LC–MS)

[42] = The drug is tested on Providencia stuartii strain: ATCC25827 for biotransformation. The drug concentrations were measured before and after a 12-h incubation by liquid-chromatography-coupled mass spectrometry (LC–MS); settings: 2 µM
[43] = The drug is tested on Dorea formicigenerans strain: ATCC27755 for biotransformation. The drug concentrations were measured before and after a 12-h incubation by liquid-chromatography-coupled mass spectrometry (LC–MS); settings: 2 µM
[44] = The drug is tested on Clostridium sporogenes strain: ATCC15579 for biotransformation. The drug concentrations were measured before and after a 12-h incubation by liquid-chromatography-coupled mass spectrometry (LC–MS); settings: 2 µM
[45] = roseburia intestinalis, 12 h, 2 µM
Description: The drug is tested on Roseburia intestinalis strain: L1-82 for biotransformation. The drug concentrations were measured before and after a 12-h incubation by liquid-chromatography-coupled mass spectrometry (LC–MS)

[46] = The drug is tested on Blautia hansenii strain: DSM20583 for biotransformation. The drug concentrations were measured before and after a 12-h incubation by liquid-chromatography-coupled mass spectrometry (LC–MS); settings: 2 µM
[47] = The drug is tested on Bacteroides vulgatus strain: ATCC8482 for biotransformation. The drug concentrations were measured before and after a 12-h incubation by liquid-chromatography-coupled mass spectrometry (LC–MS); settings: phocaeicola vulgatus, 2 µM
[48] = The drug is tested on Bacteroides ovatus strain: ATCC8483 for biotransformation. The drug concentrations were measured before and after a 12-h incubation by liquid-chromatography-coupled mass spectrometry (LC–MS); settings: 2 µM
[49] = The drug is tested on Eubacterium rectale strain: ATCC33656 for biotransformation. The drug concentrations were measured before and after a 12-h incubation by liquid-chromatography-coupled mass spectrometry (LC–MS); settings: agathobacter rectalis, 2 µM
[50] = The drug is tested on Bacteroides xylanisolvens strain: DSM18836 for biotransformation. The drug concentrations were measured before and after a 12-h incubation by liquid-chromatography-coupled mass spectrometry (LC–MS); settings: 2 µM
[51] = The drug is tested on Bacteroides fragilis strain: ATCC43859 for biotransformation. The drug concentrations were measured before and after a 12-h incubation by liquid-chromatography-coupled mass spectrometry (LC–MS); settings: 2 µM
[52] = The drug is tested on Anaerococcus hydrogenalis strain: DSM7454 for biotransformation. The drug concentrations were measured before and after a 12-h incubation by liquid-chromatography-coupled mass spectrometry (LC–MS); settings: 2 µM
[53] = The drug is tested on Collinsella aerofaciens strain: ATCC25986 for biotransformation. The drug concentrations were measured before and after a 12-h incubation by liquid-chromatography-coupled mass spectrometry (LC–MS); settings: 2 µM
[54] = The drug is tested on Enterococcus faecalis strain: V583 for biotransformation. The drug concentrations were measured before and after a 12-h incubation by liquid-chromatography-coupled mass spectrometry (LC–MS); settings: 2 µM
[55] = The drug is tested on Clostridium sp. strain: fecal isolate for biotransformation. The drug concentrations were measured before and after a 12-h incubation by liquid-chromatography-coupled mass spectrometry (LC–MS); settings: 2 µM
[56] = The drug is tested on Bifidobacterium ruminantium strain: fecal isolate for biotransformation. The drug concentrations were measured before and after a 12-h incubation by liquid-chromatography-coupled mass spectrometry (LC–MS); settings: 2 µM

Bacterial Biotransformation [1]: Compound NOT metabolized
Bacterial Biotransformation [2]: Compound NOT metabolized
Bacterial Biotransformation [3]: Compound NOT metabolized
Bacterial Biotransformation [4]: Compound metabolized
Bacterial Biotransformation [5]: Compound NOT metabolized
Bacterial Biotransformation [6]: Compound metabolized
Bacterial Biotransformation [7]: Compound NOT metabolized
Bacterial Biotransformation [8]: Compound metabolized
Bacterial Biotransformation [9]: Compound NOT metabolized
Bacterial Biotransformation [10]: Compound metabolized
Bacterial Biotransformation [11]: Compound metabolized
Bacterial Biotransformation [12]: Compound NOT metabolized
Bacterial Biotransformation [13]: Compound NOT metabolized
Bacterial Biotransformation [14]: Compound NOT metabolized
Bacterial Biotransformation [15]: Compound NOT metabolized
Bacterial Biotransformation [16]: Compound NOT metabolized
Bacterial Biotransformation [17]: Compound NOT metabolized
Bacterial Biotransformation [18]: Compound NOT metabolized
Bacterial Biotransformation [19]: Compound NOT metabolized
Bacterial Biotransformation [20]: Compound NOT metabolized
Bacterial Biotransformation [21]: Compound metabolized
Bacterial Biotransformation [22]: Compound metabolized
Bacterial Biotransformation [23]: Compound NOT metabolized
Bacterial Biotransformation [24]: Compound metabolized
Bacterial Biotransformation [25]: Compound metabolized
Bacterial Biotransformation [26]: Compound metabolized
Bacterial Biotransformation [27]: Compound NOT metabolized
Bacterial Biotransformation [28]: Compound metabolized
Bacterial Biotransformation [29]: Compound NOT metabolized
Bacterial Biotransformation [30]: Compound metabolized
Bacterial Biotransformation [31]: Compound metabolized
Bacterial Biotransformation [32]: Compound NOT metabolized
Bacterial Biotransformation [33]: Compound NOT metabolized
Bacterial Biotransformation [34]: Compound NOT metabolized
Bacterial Biotransformation [35]: Compound metabolized
Bacterial Biotransformation [36]: Compound NOT metabolized
Bacterial Biotransformation [37]: Compound metabolized
Structure (SMILES): CC#CCn1c(N2CCC[C@@H](N)C2)nc2c1c(=O)n(Cc1nc(C)c3ccccc3n1)c(=O)n2C [LINAGLIPTIN]

Bacterial Biotransformation [1]: Compound NOT metabolized
Bacterial Biotransformation [2]: Compound NOT metabolized
Bacterial Biotransformation [3]: Compound NOT metabolized
Bacterial Biotransformation [38]: Compound metabolized
Bacterial Biotransformation [4]: Compound metabolized
Bacterial Biotransformation [5]: Compound NOT metabolized
Bacterial Biotransformation [39]: Compound metabolized
Bacterial Biotransformation [6]: Compound metabolized
Bacterial Biotransformation [40]: Compound NOT metabolized
Bacterial Biotransformation [8]: Compound NOT metabolized
Bacterial Biotransformation [10]: Compound NOT metabolized
Bacterial Biotransformation [41]: Compound NOT metabolized
Bacterial Biotransformation [42]: Compound NOT metabolized
Bacterial Biotransformation [43]: Compound NOT metabolized
Bacterial Biotransformation [44]: Compound NOT metabolized
Bacterial Biotransformation [45]: Compound NOT metabolized
Bacterial Biotransformation [13]: Compound NOT metabolized
Bacterial Biotransformation [46]: Compound metabolized
Bacterial Biotransformation [47]: Compound metabolized
Bacterial Biotransformation [15]: Compound NOT metabolized
Bacterial Biotransformation [16]: Compound NOT metabolized
Bacterial Biotransformation [17]: Compound NOT metabolized
Bacterial Biotransformation [18]: Compound metabolized
Bacterial Biotransformation [19]: Compound NOT metabolized
Bacterial Biotransformation [20]: Compound NOT metabolized
Bacterial Biotransformation [23]: Compound NOT metabolized
Bacterial Biotransformation [24]: Compound metabolized
Bacterial Biotransformation [26]: Compound metabolized
Bacterial Biotransformation [48]: Compound metabolized
Bacterial Biotransformation [27]: Compound NOT metabolized
Bacterial Biotransformation [49]: Compound NOT metabolized
Bacterial Biotransformation [50]: Compound metabolized
Bacterial Biotransformation [51]: Compound metabolized
Bacterial Biotransformation [52]: Compound NOT metabolized
Bacterial Biotransformation [28]: Compound NOT metabolized
Bacterial Biotransformation [53]: Compound NOT metabolized
Bacterial Biotransformation [29]: Compound NOT metabolized
Bacterial Biotransformation [31]: Compound NOT metabolized
Bacterial Biotransformation [54]: Compound NOT metabolized
Bacterial Biotransformation [32]: Compound NOT metabolized
Bacterial Biotransformation [33]: Compound NOT metabolized
Bacterial Biotransformation [34]: Compound NOT metabolized
Bacterial Biotransformation [55]: Compound metabolized
Bacterial Biotransformation [56]: Compound NOT metabolized
Structure (SMILES): Cc1cc(C)cc(OCC2CNC(=O)O2)c1 (stereo unspecified) [METAXALONE]
